Read-outs that look alike come from different tables or passages of the source. Where a SMILES comes first, the peptide text is derived from it. Bridges are numbered along the chain shown (N, C = ends). [ ]: non-standard residue; d: D form. Pip = O=C(O)[C@@H]1CCCCN1
Target: T1, alpha subunit of the human FcεRI receptor (Homo sapiens, UniProt P12319)
T1 construct: expressed in transfected cells; host or cells: Chinese hamster ovary (CHO FcεRI+) cells
T1 sequence (P12319 26-257): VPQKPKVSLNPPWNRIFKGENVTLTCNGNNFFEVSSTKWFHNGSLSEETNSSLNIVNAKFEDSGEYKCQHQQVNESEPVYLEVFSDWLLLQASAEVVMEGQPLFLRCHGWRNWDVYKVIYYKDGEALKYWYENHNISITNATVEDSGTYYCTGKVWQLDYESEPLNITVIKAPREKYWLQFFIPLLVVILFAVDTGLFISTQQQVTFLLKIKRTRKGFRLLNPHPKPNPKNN
Experiment: cell-based 125I-IgE binding inhibition assay on CHO FcεRI+ cells
Settings: for fold difference in activity relative to comparator peptide: comparator (parent/control peptide) as named in the sentence
Procedure: . The following day the cells were rinsed three times with PBS and then once with F12/DMEM. Peptide stocks were reconstituted in 100 mM Hepes buffered water, pH 7.2, at a concentration of 5 mg/mL. Working concentrations of the peptide were diluted in assay buffer (see below). 75 ul, of a desired concentration of peptide was added to the top row of a separate 96 well microtiter plate and serially diluted 1:3 in 50 uL of the assay buffer (F12/DMEM, 1% BSA, 0.05% NaN3 and […] Hepes pH 7.2). Starting concentrations ranged from 50-500 uM. Next, 50 uL of the diluted peptide was transferred to the 96 microtiter well plate containing a monolayer of CHO FcεRI+ cells. After a 1 hour incubation at room temperature, 50 uL of ^125I-IgE (1.5 nM) was added to each well and incubated for an additional 45-60 minutes at 4° C. followed by 5 washes with 200 uL of assay buffer. Cells were solubilized with 200 uL of 1 N NaOH and transferred to a 96 microtiter tube for counting in a gamma counter to determine counts bound. The data were plotted using KaleidaGraph 3.0 and fitted using 4-parameter fits. IC50 values were determined for each peptide.
Six peptides based on selected clones from library #516 were synthesized and assayed for the ability to inhibit the binding of ^125I-IgE to a Chinese hamster ovary cell line expressing the alpha subunit of the IgE high affinity receptor, FcεRI. The peptides were synthesized as nine residue monomers and oxidized to allow the formation of a disulfide bridge resulting in a cyclic peptide. The size of each peptide was confirmed by mass spectrometry.

[1] = IgE-inhibition activity of synthetic peptides, read-out: Inhibition activity: C+hd 50 +l (uM) ± s.d.
[2] = inhibition of labeled IgE-binding to CHO FcεRI+ cells, read-out: Mean IC50(uM) ± S.D.

CC(C)C[C@H](NC(=O)[C@H](C)N)C(=O)N[C@H]1CSSC[C@@H](C(=O)N[C@@H](Cc2ccc(O)cc2)C(=O)N[C@H](C(N)=O)C(C)C)NC(=O)[C@H](C(C)C)NC(=O)[C@H](CCC(=O)O)NC(=O)[C@@H]2CCCN2C1=O [IGE035, ALCPEVCYV-nh2] (H-ALCPEVCYV-NH2; disulfide 3-7)
inhibiting 125I-IgE binding to cell surface expressed FcεRI (in words): not active | IC50 [1]: > 500 µM

CC(=O)N[C@@H](C)C(=O)N[C@@H](CC(C)C)C(=O)N[C@H]1CSSC[C@@H](C(=O)N[C@@H](Cc2ccc(O)cc2)C(=O)N[C@H](C(N)=O)C(C)C)NC(=O)[C@H](C(C)C)NC(=O)[C@H](CCC(=O)O)NC(=O)[C@@H]2CCCN2C1=O [IGE036, Ac-ALCPEVCYV-nh2] (Ac-ALCPEVCYV-NH2; disulfide 3-7)
inhibiting 125I-IgE binding to cell surface expressed FcεRI (in words): not active | IC50 [1]: > 500 µM

CSCC[C@H](NC(=O)[C@@H]1CSSC[C@H](NC(=O)[C@H](CCCNC(=N)N)NC(=O)[C@@H]2CCCN2C(=O)[C@H](CC(C)C)NC(=O)[C@@H](N)CC(N)=O)C(=O)N[C@@H]([C@@H](C)O)C(=O)N[C@@H](CCC(=O)O)C(=O)NCC(=O)N2CCC[C@H]2C(=O)N[C@@H](Cc2c[nH]c3ccccc23)C(=O)NCC(=O)N[C@@H](Cc2c[nH]c3ccccc23)C(=O)N[C@@H](C(C)C)C(=O)N1)C(=O)N[C@@H](C)C(=O)N[C@@H](C)C(=O)N[C@@H](CC(=O)O)C(N)=O [IGE043, NLPRCTEGPWGWVCMAAD-nh2] (H-NLPRCTEGPWGWVCMAAD-NH2; disulfide 5-14)
IC50 [2]: 1.4 ± 1 µM

CC[C@H](C)[C@H](NC(=O)[C@@H]1CSSC[C@H](N)C(=O)N[C@@H](CC(C)C)C(=O)N[C@@H](CCC(=O)O)C(=O)NCC(=O)N2CCC[C@H]2C(=O)N[C@@H](Cc2c[nH]c3ccccc23)C(=O)NCC(=O)N[C@@H](Cc2c[nH]c3ccccc23)C(=O)N[C@@H](Cc2ccccc2)C(=O)N1)C(N)=O [IGE045, CLEGPWGWFCI-nh2] (H-CLEGPWGWFCI-NH2; disulfide 1-10; N-terminus assumed)
IC50 [2]: 300 ± 269 µM

CC[C@H](C)[C@H](NC(=O)[C@@H]1CSSC[C@H](N)C(=O)N[C@@H]([C@@H](C)O)C(=O)N[C@@H](CCC(=O)O)C(=O)NCC(=O)N2CCC[C@H]2C(=O)N[C@@H](Cc2c[nH]c3ccccc23)C(=O)NCC(=O)N[C@@H](Cc2c[nH]c3ccccc23)C(=O)N[C@@H](C(C)C)C(=O)N1)C(N)=O [IGE055, CTEGPWGWVCI-nh2] (H-CTEGPWGWVCI-NH2; disulfide 1-10)
IC50 [2]: > 500 µM

CC[C@H](C)[C@H](NC(=O)[C@@H]1CSSC[C@H](NC(C)=O)C(=O)N[C@@H]([C@@H](C)O)C(=O)N[C@@H](CCC(=O)O)C(=O)NCC(=O)N2CCC[C@H]2C(=O)N[C@@H](Cc2c[nH]c3ccccc23)C(=O)NCC(=O)N[C@@H](Cc2c[nH]c3ccccc23)C(=O)N[C@@H](C(C)C)C(=O)N1)C(N)=O [IGE056, Ac-CTEGPWGWVCI-nh2] (Ac-CTEGPWGWVCI-NH2; disulfide 1-10)
IC50 [2]: > 500 µM

CSCC[C@H](NC(=O)[C@@H]1CSSC[C@H](NC(=O)[C@H](CCCNC(=N)N)NC(=O)[C@@H]2CCCN2C(=O)[C@H](CC(C)C)NC(=O)[C@H](CC(N)=O)NC(C)=O)C(=O)N[C@@H]([C@@H](C)O)C(=O)N[C@@H](CCC(=O)O)C(=O)NCC(=O)N2CCC[C@H]2C(=O)N[C@@H](Cc2c[nH]c3ccccc23)C(=O)NCC(=O)N[C@@H](Cc2c[nH]c3ccccc23)C(=O)N[C@@H](C(C)C)C(=O)N1)C(N)=O [IGE058, Ac-NLPRCTEGPWGWVCM-nh2] (Ac-NLPRCTEGPWGWVCM-NH2; disulfide 5-14)
IC50 [2]: 1.8 ± 1.3 µM

CSCC[C@H](NC(=O)[C@@H]1CSSC[C@H](NC(=O)[C@H](CCCNC(=N)N)NC(=O)[C@@H]2CCCN2C(=O)[C@H](CC(C)C)NC(=O)[C@H](CC(N)=O)NC(C)=O)C(=O)N[C@@H]([C@@H](C)O)C(=O)N[C@@H](C)C(=O)NCC(=O)N2CCC[C@H]2C(=O)N[C@@H](Cc2c[nH]c3ccccc23)C(=O)NCC(=O)N[C@@H](Cc2c[nH]c3ccccc23)C(=O)N[C@@H](C(C)C)C(=O)N1)C(=O)N[C@@H](C)C(=O)N[C@@H](C)C(=O)N[C@@H](CC(=O)O)C(N)=O [IGE059, AC-NLPRCTAGPWGWVCMAAD-nh2] (Ac-NLPRCTAGPWGWVCMAAD-NH2; disulfide 5-14)
fold reduction in inhibition/binding (truncations and alanine substitutions of IGE063): 6 fold

CSCC[C@H](NC(=O)[C@@H]1CSSC[C@H](NC(=O)[C@@H]2CCCN2C(=O)[C@H](CC(C)C)NC(=O)[C@H](CC(N)=O)NC(C)=O)C(=O)N[C@@H]([C@@H](C)O)C(=O)N[C@@H](C)C(=O)NCC(=O)N2CCC[C@H]2C(=O)N[C@@H](Cc2c[nH]c3ccccc23)C(=O)NCC(=O)N[C@@H](Cc2c[nH]c3ccccc23)C(=O)N[C@@H](C(C)C)C(=O)N1)C(=O)N[C@@H](C)C(=O)N[C@@H](C)C(=O)N[C@@H](CC(=O)O)C(N)=O [IGE060, Ac-NLPCTAGPWGWVCMAAD-nh2] (Ac-NLPCTAGPWGWVCMAAD-NH2; disulfide 4-13)
IC50 [2]: > 500 µM

CSCC[C@H](NC(=O)[C@@H]1CSSC[C@H](NC(=O)[C@H](CCCNC(=N)N)NC(=O)[C@@H]2CCCN2C(=O)[C@H](CC(C)C)NC(=O)[C@@H](N)CC(N)=O)C(=O)N[C@@H]([C@@H](C)O)C(=O)N[C@@H](CCC(=O)O)C(=O)NCC(=O)N[C@@H](C)C(=O)N[C@@H](Cc2c[nH]c3ccccc23)C(=O)NCC(=O)N[C@@H](Cc2c[nH]c3ccccc23)C(=O)N[C@@H](C(C)C)C(=O)N1)C(=O)O [IGE070, NLPRCTEGAWGWVCM] (H-NLPRCTEGAWGWVCM-OH; disulfide 5-14)
IC50 [2]: > 500 µM

CC[C@H](C)[C@H](NC(=O)[C@@H]1CSSC[C@H](NC(=O)[C@H](CCCNC(=N)N)NC(=O)[C@@H]2CCCN2C(=O)[C@H](CC(C)C)NC(=O)[C@@H](N)CC(N)=O)C(=O)N[C@@H]([C@@H](C)O)C(=O)N[C@@H](CCC(=O)O)C(=O)NCC(=O)N2CCC[C@H]2C(=O)N[C@@H](Cc2c[nH]c3ccccc23)C(=O)NCC(=O)N[C@@H](Cc2c[nH]c3ccccc23)C(=O)N[C@@H](C(C)C)C(=O)N1)C(=O)O [IGE075, NLPRCTEGPWGWVCI] (H-NLPRCTEGPWGWVCI-OH; disulfide 5-14; N-terminus and C-terminus assumed)
IC50 [2]: 1.4 ± 1.1 µM

CC[C@H](C)[C@H](N)C(=O)N[C@H](C(=O)N[C@H]1CSSC[C@@H](C(=O)N[C@@H](Cc2ccc(O)cc2)C(=O)N[C@H](C(N)=O)C(C)C)NC(=O)[C@H](C(C)C)NC(=O)[C@H](CC(=O)O)NC(=O)[C@@H]2CCCN2C(=O)[C@@H]2CSSC[C@H](NC(=O)[C@H](CC(C)C)NC(=O)[C@H](CCCNC(=N)N)NC(=O)[C@@H]3CCCN3C1=O)C(=O)N[C@@H](Cc1ccc(O)cc1)C(=O)N[C@@H](CCC(=O)O)C(=O)N[C@@H](CC(C)C)C(=O)N[C@@H](CC(=O)O)C(=O)N[C@@H](Cc1ccc(O)cc1)C(=O)N[C@@H](CCC(=O)O)C(=O)N[C@@H](CC(C)C)C(=O)N2)C(C)C [IGE141] (H-IVCPRLCYELDYELCPDVCYV-NH2; disulfide 3-19, 7-15)
fold difference in activity relative to comparator peptide: 2 fold

CC(C)C[C@@H]1NC(=O)[C@H](CCC(=O)O)NC(=O)[C@H](C)NC(=O)CNC(=O)CNC(=O)[C@H](Cc2ccccc2)NC(=O)[C@H](Cc2ccc(O)cc2)NC(=O)[C@@H]2CSSC[C@H](NC1=O)C(=O)N1CCC[C@H]1C(=O)N[C@@H](CC(=O)O)C(=O)N[C@@H](C(C)C)C(=O)N[C@H](C(=O)N[C@@H](Cc1ccc(O)cc1)C(=O)N[C@H](C(N)=O)C(C)C)CSSC[C@H](NC(=O)[C@H](CCC(N)=O)NC(=O)[C@@H](N)C(C)C)C(=O)N1CCCC[C@H]1C(=O)N[C@@H](Cc1c[nH]cn1)C(=O)N[C@@H](Cc1ccccc1)C(=O)N2 [IGE162-2, VQC(Pip)HFCYFGGAELCPDVCYV-nh2] (H-VQC[Pip]HFCYFGGAELCPDVCYV-NH2; disulfide 3-19, 7-15)
fold difference in activity relative to comparator peptide: little change in activity

From patent US20040086942A1, “Ige receptor antagonists” (priority 2003, published 2004)
